Test results taken from ChEMBL document CHEMBL1759989, “Synthesis and evaluation of thiophenyl derivatives as inhibitors of alkaline phosphatase” (Bioorg Med Chem Lett, 2011).
Structures can show the parent of a compound that is named as a salt.

Experiments:
[1] = Inhibition of pig TNAP at pH 10.4 by UV-visible spectrophotometric assay; design: species or system Sus scrofa
[2] = Inhibition of pig TNAP at pH 7.8 by UV-visible spectrophotometric assay; design: species or system Sus scrofa

Row | Compound | IC50 [1] | IC50 [2]
1 | C1=CN2CC(c3cccs3)N=C2S1 (racemic) | 331 µM | 260 µM
2 | c1csc(C2CN3CCSC3=N2)c1 (racemic) | > 800 µM | > 800 µM
3 | c1cc(-c2cn3c(n2)SCC3)cs1 | > 800 µM | > 800 µM
4 | c1ccc([C@H]2CN3CCSC3=N2)cc1 [LEVAMISOLE HYDROCHLORIDE] | 93 µM | 78 µM
5 | C1=CN2CC(c3ccsc3)N=C2S1 (racemic) | 42 µM | 84 µM
6 | C1=C(c2ccsc2)N2CCN=C2S1 | > 800 µM | > 800 µM
7 | c1cc(-c2cn3ccsc3n2)cs1 | > 800 µM | > 800 µM
8 | c1cc(C2CN3CCSC3=N2)cs1 (racemic) | 408 µM | 192 µM
